Measured values as given in patent US20240368174A1, “Antiviral Heterocyclic Compounds” (Enanta Pharmaceuticals, Inc., priority 2023, published 2024).

Tests used:
[1] = tested on: HMPV clinical isolate A2 strain TN 94-49; assay: HMPV antiviral assay, Method 2 (LLC-MK2 cells with CP-100-356, ATP-Lite); format: cell-based; conditions: human metapneumovirus; hMPV A2 TN/94-49, LLC-MK2 cells with CP-100-356, Method 2
How it was run: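 EC50 comes from a four-parameter fit of percent cell viability (ATP-Lite, normalized to virus-only and cell-only wells) after 7 days at 37 °C. Infection used HMPV A2 TN 94-49 at MOI 0.16 in LLC-MK2 cells, with 2 μM P-gp inhibitor CP-100-356 and 2 μg/mL TPCK-trypsin final; dose range 200 nM top, 2.5-fold, 10 points, duplicate.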

[2] = tested on: HMPV clinical isolate A2 strain TN 94-49; assay: HMPV antiviral assay, Method 1 (LLC-MK2 cells, ATP-Lite); format: cell-based; conditions: human metapneumovirus, hMPV A2 TN/94-49, LLC-MK2 cells
How it was run: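 EC50 derived by four-parameter logistic fit of percent cell health, measured as ATP-Lite luminescence after 7 days at 37° C, 5% CO2. Compounds tested as 10-point 2.5-fold dilutions starting at 2 μM against TN 94-49 virus (MOI 0.005) in LLC-MK2 cells seeded at 5,000/well, infection medium containing 2 μg/mL TPCK-trypsin, serum-free.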

Row | EC50 [1] [nM] | EC50 [2] [nM] | Compound
1 | < 200 | > 500 | C[C@@H](O)COc1cc(C(=O)NC[C@](O)(c2cc3c(c(-c4ccc(F)c(Cl)c4F)n2)OC[C@]3(C)C(N)=O)C2CC2)cc2cn(C3CC3)nc12 [Example 38]
2 | < 200 | < 500 | COc1cc(C(=O)NC[C@@](O)(c2ccccc2)c2cc3c(c(-c4cc(F)c(F)cc4F)n2)OC[C@]3(C)C(N)=O)cc2cn(C(F)F)nc12 [Example 172]
3 | < 200 | < 500 | Cc1cnc2c(OC3CC3)cc(C(=O)NC[C@@](O)(c3ccccc3)c3cc4c(c(-c5cc(Cl)c(F)cc5F)n3)OC[C@]4(C)C(N)=O)cc2c1 [Example 182]
4 | < 200 | < 500 | C[C@]1(C(N)=O)COc2c1cc([C@@](O)(CNC(=O)c1ccc3nc(C4CC4)oc3c1)c1ccccc1)nc2-c1cc(Cl)c(F)cc1F [Example 88]
5 | < 200 | < 500 | COc1cc(C(=O)NC[C@](O)(c2cc3c(c(-c4cc(Cl)c(F)cc4F)n2)OC[C@]3(C)C(N)=O)c2nccs2)cc2cn(C3CC3)nc12 [Example 475]
6 | < 200 | < 500 | C[C@]1(C(N)=O)COc2c1cc([C@@](O)(CNC(=O)c1cc(OC3CC3)c3nn(C(F)F)cc3c1)C1CC(F)(F)C1)nc2-c1cc(F)c(F)cc1F [Example 34]
7 | < 200 | < 500 | COc1cc(C(=O)NC[C@@](O)(c2ccccc2)c2cc3c(c(-c4ccc5c(c4)OC(F)(F)O5)n2)OC[C@]3(C)C(N)=O)cc2cn(C3(F)CC3)nc12 [Example 19]
8 | < 200 | < 500 | COc1cc(C(=O)NC[C@@](O)(c2cccc(F)c2)c2cc3c(c(-c4cccc(Cl)c4Cl)n2)OC[C@]3(C)C(N)=O)cc2oc(C)nc12 [Example 293]
9 | < 200 | < 500 | COc1cc(C(=O)NC[C@@](O)(c2cccc(F)c2)c2cc3c(c(-c4ccc5c(c4Cl)OC(F)(F)O5)n2)OC[C@]3(C)C(N)=O)cc2cn(C3(F)CC3)nc12 [Example 275]
10 | < 200 | < 500 | C[C@]1(C(N)=O)COc2c1cc([C@@](O)(CNC(=O)c1cc(OC3CC3)c3nc(C4CC4)sc3c1)C1CC1)nc2-c1cc(Cl)c(F)cc1F [Example 3]
11 | < 200 | > 500 | COc1cc(C(=O)NC[C@](O)(c2cc3c(c(-c4cc(F)c(F)cc4C)n2)OC[C@]3(C)C(N)=O)C2CC2)cc2cn(C3CC3)nc12 [Example 50]
12 | < 200 | < 500 | COc1cc(C(=O)NC[C@@](O)(c2ccccc2)c2cc3c(c(-c4ccc(F)c(Cl)c4Cl)n2)OC[C@]3(C)C(N)=O)cc2cn(C(F)F)nc12 [Example 258]
13 | < 200 | < 500 | COc1cc(C(=O)NC[C@@](O)(c2ccccc2)c2cc3c(c(-c4cc(Cl)c(F)cc4F)n2)OC[C@]3(C)C(N)=O)cc2cc(C3CC3)nnc12 [Example 90]
14 | < 200 | < 500 | [2H]C([2H])([2H])c1nc2ccc(C(=O)NC[C@@](O)(c3cccc(F)c3)c3cc4c(c(-c5ccc6c(c5Cl)OC(F)(F)O6)n3)OC[C@]4(C)C(N)=O)cc2o1 [Example 282]
15 | < 200 | < 500 | [2H]C([2H])([2H])NC(=O)[C@@]1(C)COc2c1cc([C@@](O)(CNC(=O)c1cc(OC)c3nn(C4CC4)cc3c1)c1ccccc1)nc2-c1cc(Cl)c(F)cc1F [Example 140]
16 | < 200 | < 500 | COc1cc(C(=O)NC[C@@](O)(c2ccccc2)c2cc3c(c(-c4cc(F)c(F)cc4F)n2)OC[C@]3(C)C(N)=O)cc2cn(C3(F)CC3)nc12 [Example 170]
17 | < 200 | < 500 | COc1cc(C(=O)NC[C@@](O)(c2ccccc2)c2cc3c(c(-c4cc(Cl)ccc4F)n2)OC[C@]3(C)C(N)=O)cc2cn(C(F)F)nc12 [Example 145]
18 | < 200 | < 500 | COc1cc(C(=O)NC[C@](O)(c2cc3c(c(-c4ccc(F)c(F)c4C)n2)OC[C@]3(C)C(N)=O)C2CC2)cc2cn(C3CC3)nc12 [Example 70]
19 | < 200 | < 500 | C[C@]1(C(N)=O)COc2c1cc([C@@](O)(CNC(=O)c1cc(OC3CC3)c3nn(C4CC4)cc3c1)C1CC1)nc2-c1ccc(F)c(Cl)c1Cl [Example 23]
20 | < 200 | < 500 | COc1cc(C(=O)NC[C@](O)(c2cc3c(c(-c4cc(F)c(F)cc4F)n2)OC[C@]3(C)C(N)=O)C2CC2)cc2cc(C)c(F)nc12 [Example 21]
21 | < 200 | < 500 | COc1cc(C(=O)NC[C@](O)(c2cc3c(c(-c4cc(Cl)c(F)cc4F)n2)OC[C@]3(C)C(N)=O)c2cccs2)cc2cn(C3CC3)nc12 [Example 474]
22 | < 200 | < 500 | COc1cc(C(=O)NC[C@@](O)(c2ccccc2)c2cc3c(c(-c4cc(Cl)c(F)cc4F)n2)OC[C@]3(C)C(N)=O)cc2cc(Br)cnc12 [Example 185]

Row | EC50 [1] [nM] | EC50 [2] [nM] | Compound
23 | < 200 | < 500 | COc1cc(C(=O)NC[C@@](O)(c2ccccc2)c2cc3c(c(-c4cc(C(F)F)c(F)cc4F)n2)OC[C@]3(C)C(N)=O)cc2cn(C3(F)CC3)nc12 [Example 298]
24 | < 200 | < 500 | COc1cc(C(=O)NC[C@@](O)(c2cccc(F)c2)c2cc3c(c(-c4ccc(F)c(Cl)c4Cl)n2)OC[C@]3(C)C(N)=O)cc2cn(C(F)F)nc12 [Example 270]
25 | < 200 | > 500 | COc1cc(C(=O)NC[C@@](O)(c2ccccc2)c2cc3c(c(-c4cc(Cl)c(F)cc4F)n2)OC[C@]3(C)C(N)=O)cc2cc(C(F)F)nnc12 [Example 186]
26 | < 200 | < 500 | COc1cc(C(=O)NC[C@@](O)(c2cccc(F)c2)c2cc3c(c(-c4cc(Cl)c(F)cc4F)n2)OC[C@]3(C)C(N)=O)cc2cn(C3CC3)nc12 [Example 132]
27 | < 200 | < 500 | Cc1cnc2c(OC(F)F)cc(C(=O)NC[C@@](O)(c3ccccc3)c3cc4c(c(-c5cc(Cl)c(F)cc5F)n3)OC[C@]4(C)C(N)=O)cc2c1 [Example 183]
28 | > 200 | > 500 | CCc1cc(-c2nc([C@@](O)(CNC(=O)c3cc(OC)c4nn(C5CC5)cc4c3)C3CC3)cc3c2OC[C@]3(C)C(N)=O)ccc1F [Example 71]
29 | < 200 | < 500 | COc1cc(C(=O)NC[C@@](O)(c2ccccc2)c2cc3c(c(-c4ccc(F)c(Cl)c4Cl)n2)OC[C@]3(C)C(N)=O)cc2cn(C3(F)CC3)nc12 [Example 259]
30 | < 200 | < 500 | COc1ccc([C@](O)(CNC(=O)c2cc(OC)c3nn(C4(F)CC4)cc3c2)c2cc3c(c(-c4cc(Cl)c(F)cc4F)n2)OC[C@]3(C)C(N)=O)cc1 [Example 166]
31 | < 200 | < 500 | COc1cc(C(=O)NC[C@@](O)(c2ccccc2)c2cc3c(c(-c4ccc5c(c4)OC(F)(F)O5)n2)OC[C@]3(C)C(N)=O)cc2cn(C3CC3)nc12 [Example 18]
32 | < 200 | < 500 | COc1cc(C(=O)NC[C@@](O)(c2cccc(F)c2)c2cc3c(c(-c4ccc5c(c4Cl)OC(F)(F)O5)n2)OC[C@]3(C)C(N)=O)cc2cn(C(F)F)nc12 [Example 276]
33 | < 200 | < 500 | COc1cc(C(=O)NC[C@@](O)(c2ccccc2)c2cc3c(c(-c4cc(Cl)c(F)cc4F)n2)OC[C@]3(C)C(N)=O)cc2oc(C3CC3)nc12 [Example 85]
34 | < 200 | < 500 | C[C@]1(C(N)=O)COc2c1cc([C@@](O)(CNC(=O)c1ccc3nc(C4CC4)oc3c1)c1cccc(F)c1)nc2-c1ccc2c(c1Cl)OC(F)(F)O2 [Example 287]
35 | < 200 | < 500 | COc1cc(C(=O)NC[C@@](O)(c2ccccc2)c2cc3c(c(-c4ccc(F)c(F)c4Cl)n2)OC[C@]3(C)C(N)=O)cc2cn(C(F)F)nc12 [Example 213]
36 | < 200 | < 500 | COc1cc(C(=O)NC[C@@](O)(c2ccc(F)cc2)c2cc3c(c(-c4ccc(F)c(Cl)c4Cl)n2)OC[C@]3(C)C(N)=O)cc2cn(C3CC3)nc12 [Example 41]
37 | < 200 | < 500 | COc1cc(C(=O)NC[C@@](O)(c2ccccc2)c2cc3c(c(-c4cc(Cl)ccc4F)n2)OC[C@]3(C)C(N)=O)cc2cn(C3CC3)nc12 [Example 144]
38 | < 200 | < 500 | COc1cc(C(=O)NC[C@@](O)(c2ccccc2)c2cc3c(c(-c4ccc(F)c(Cl)c4Cl)n2)OC[C@]3(C)C(N)=O)cc2oc(C3CC3)nc12 [Example 278]
39 | < 200 | < 500 | C[C@]1(C(N)=O)COc2c1cc([C@@](O)(CNC(=O)c1cc(OC3CC3)c3nn(C4(F)CC4)cc3c1)C1CC1)nc2-c1cc(Cl)c(F)cc1F [Example 5]
40 | < 200 | < 500 | COc1cc(C(=O)NC[C@@](O)(c2ccccc2)c2cc3c(c(-c4ccc(F)c(Cl)c4Cl)n2)OC[C@]3(C)C(N)=O)cc2cc(C)nnc12 [Example 289]
41 | < 200 | < 500 | COc1cc(C(=O)NC[C@@](O)(c2ccccc2)c2cc3c(c(-c4cc(F)c(F)cc4F)n2)OC[C@]3(C)C(N)=O)cc2cn(C3CC3)nc12 [Example 171]
42 | < 200 | < 500 | COc1cc(C(=O)NC[C@@](O)(c2ccccc2)c2cc3c(c(-c4cccc(Cl)c4Cl)n2)OC[C@]3(C)C(N)=O)cc2cn(C3CC3)nc12 [Example 260]
43 | < 200 | < 500 | COc1cc(C(=O)NC[C@@](O)(c2cccc(F)c2)c2cc3c(c(-c4cccc(Cl)c4Cl)n2)OC[C@]3(C)C(N)=O)cc2cn(C3(F)CC3)nc12 [Example 291]
44 | < 200 | < 500 | COc1cc(C(=O)NC[C@@](O)(c2ccccc2)c2cc3c(c(-c4ccc(F)c(Cl)c4Cl)n2)OC[C@]3(C)C(N)=O)cc2cc(Cl)cnc12 [Example 294]
